{"source": "patent US6720341B2", "about": "“Preventives/remedies for kidney diseases” (Mitsubishi Pharma Corporation, priority 2000, dated 2004)", "test_system": "renal interstitial fibrosis model mice", "assay": "Action in renal interstitial fibrosis model mice due to unilateral ureteral ligation", "type": "in vivo", "method": "Unilateral ureteral ligation mice were prepared according to the reported method (Kidney Int. 54, 110-119, (1998)). Male BL6/C3H F1 mice (6-week-old, body weight 25 g-30 g) were anesthetized with pentobarbital and subjected to median incision. Thereafter, left ureter was detached and ligated at two points with silk thread. Two models were prepared, and 10 mg/kg of Y-27632 was orally administered (administration with drinking water) to one group for consecutive days from 2 days prior to the operation. Ten days postoperation, the kidney on the ureter ligation side was removed, fixed with 4% paraformaldehyde and prepared into specimen, for staining, which were subjected to Masson trichrome staining. The level of renal interstitial fibrosis was calculated by image analysis of the area ratio (interstitium cortex area ratio:%) of the portion stained blue (fibrosis) relative to the entire sight. (Results)"}
{"smiles": "C[C@@H](N)[C@H]1CC[C@H](C(=O)Nc2ccncc2)CC1", "note": "[Compound Y-27632, (+)-trans-4-(1-aminoethyl)-1-(4-pyridylcarbamoyl)cyclohexane 2HCl.1H2O]", "values": [{"measurement": "level of renal interstitial fibrosis", "setting": "10 mg/kg orally, against non-administration group, p < 0.01 (t-test)", "result": "significantly suppressed"}, {"measurement": "portion stained blue (fibrosis) in Masson trichrome stained kidney specimen", "setting": "FIG. 1B, Y-27632 administration group, 10 mg/kg orally, ten days postoperation", "result": "scarcely detected"}, {"measurement": "Area ratio of interstitium cortex (Fibrosis): % (average value ± SD)", "setting": "unilateral ureteral ligation mice, 10 mg/kg orally (with drinking water) from 2 days prior to operation, kidney removed ten days postoperation, Masson trichrome staining, image analysis, n = 4", "result": "7.31 ± 3.11", "unit": "%"}]}
